Source: PubChem BioAssay AID180 (DTP/NCI, 2004)
Several values for one entry are separate records, joined by “and”; a condition that tells them apart may be missing. Equal entries are not always repeated.

System: BDF1 mice, Adenocarcinoma 755 s.c., tumor weight T/C
Test: NCI In Vivo Anticancer Drug Screen. Data for tumor model Adenocarcinoma 755 (subcutaneous) in B6D2F1 (BDF1) mice
Details: endpoint: mean tumor weight, schedule: Q01DX011 (ip), higher = larger tumour
Summary of the method: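 Values express treated (T) relative to vehicle-dosed control (C) animals, based on survival or tumour size measured after compound treatment of mice bearing a transplanted tumour.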

O/N=C1\CCCC\C1=N/O
T/C (dose: 200.0 mg/kg/injection, vehicle: other): 55 % of control
T/C (dose: 300.0 mg/kg/injection, vehicle: other): 4 % of control

Nc1ncc2[nH]c(N)nc2n1
T/C (dose: 25.0 mg/kg/injection, vehicle: methylcellulose (MC)): 58 % of control
T/C (dose: 75.0 mg/kg/injection, vehicle: methylcellulose (MC)): 73 % of control

CCCCOP(=O)(OCCCC)OCC1OC(n2cnc3c(=S)nc[nH]c32)C(O)C1O (configuration not stated)
T/C (dose: 31.0 mg/kg/injection, vehicle: methylcellulose (MC)): 100 % of control
T/C (dose: 62.0 mg/kg/injection, vehicle: methylcellulose (MC)): 65 % of control
T/C (dose: 125.0 mg/kg/injection, vehicle: methylcellulose (MC)): 46 % of control

O=C(N/N=C\c1ccc(Br)cc1)c1ccncc1
T/C (dose: 30.0 mg/kg/injection, vehicle: methylcellulose (MC)): 52 % of control
T/C (dose: 60.0 mg/kg/injection, vehicle: methylcellulose (MC)): 52 % of control
T/C (dose: 120.0 mg/kg/injection, vehicle: methylcellulose (MC)): 62 % of control
T/C (dose: 240.0 mg/kg/injection, vehicle: methylcellulose (MC)): 37 % of control
T/C (dose: 500.0 mg/kg/injection, vehicle: methylcellulose (MC)): 64 % of control

COc1ccc(C(=O)OCC2OC(n3cnc4c(=S)nc[nH]c43)C(OC(=O)c3ccc(OC)cc3)C2OC(=O)c2ccc(OC)cc2)cc1 (configuration not stated)
T/C (dose: 200.0 mg/kg/injection, vehicle: carboxymethylcellulose (CMC)): 28 % of control
T/C (dose: 400.0 mg/kg/injection, vehicle: carboxymethylcellulose (CMC)): 2 % of control
T/C (dose: 800.0 mg/kg/injection, vehicle: carboxymethylcellulose (CMC)): 7 % of control

Cn1cnc2nc[nH]c2c1=O
T/C (dose: 31.2 mg/kg/injection, vehicle: carboxymethylcellulose (CMC)): 95 % of control
T/C (dose: 62.5 mg/kg/injection, vehicle: carboxymethylcellulose (CMC)): 99 % of control
T/C (dose: 125.0 mg/kg/injection, vehicle: carboxymethylcellulose (CMC)): 108 % of control
T/C (dose: 250.0 mg/kg/injection, vehicle: carboxymethylcellulose (CMC)): 116 % of control

O=[N+]([O-])c1ccc(-n2cnc3c(=S)nc[nH]c32)o1
T/C (dose: 0.2 mg/kg/injection, vehicle: carboxymethylcellulose (CMC)): 105 % of control
T/C (dose: 0.4 mg/kg/injection, vehicle: carboxymethylcellulose (CMC)): 92 % of control
T/C (dose: 0.8 mg/kg/injection, vehicle: carboxymethylcellulose (CMC)): 86 % of control
T/C (dose: 1.6 mg/kg/injection, vehicle: carboxymethylcellulose (CMC)): 29 % of control and 44 % of control
T/C (dose: 3.2 mg/kg/injection, vehicle: carboxymethylcellulose (CMC)): 32 % of control
T/C (dose: 6.3 mg/kg/injection, vehicle: carboxymethylcellulose (CMC)): 1 % of control

Nc1ncnc2c1ncn2CCN(CCO)CCO
T/C (dose: 25.0 mg/kg/injection, vehicle: saline): 172 % of control
T/C (dose: 225.0 mg/kg/injection, vehicle: saline): 158 % of control

CC(=O)Nc1c(Cl)c(Cl)c2c(c1Cl)Cc1cc(Br)ccc1-2
T/C (dose: 12.0 mg/kg/injection, vehicle: carboxymethylcellulose (CMC)): 30 % of control
T/C (dose: 25.0 mg/kg/injection, vehicle: carboxymethylcellulose (CMC)): 41 % of control

CCCCCCCCSc1ncnc2c1ncn2CCCC
T/C (dose: 93.0 mg/kg/injection, vehicle: saline): 92 % of control
T/C (dose: 250.0 mg/kg/injection, vehicle: saline): 97 % of control
T/C (dose: 375.0 mg/kg/injection, vehicle: saline): 77 % of control
